Assay results as given in patent US20250136617A1 (The Regents of the University of Colorado, A Body Corporate, priority 2022, published 2025).
“Also recorded” adds a separate entry of the source.

What was measured:
Assay type in all cases: cell-based
[1] = biological target: T1, CXCR4 (Homo sapiens, UniProt P61073); test: primary 1536 w β-arrestin recruitment assay (FRET, β-lactamase reporter) in U2OS cells overexpressing CXCR4; design: host or cells: U2OS
Method: In an effort to identify CXCR4 activators from the NIH Molecular Library Small Molecule Repository (MLSMR), a primary screening assay was developed to measure β-arrestin recruitment to the activated G-protein coupled receptor by Florescence Resonance Energy Transfer (FRET) in U2OS cells overexpressing the CXCR4 receptor engineered with a β-lactamase (bla) reporter system (Invitrogen cat #K1779). CXCR4-bla cells plated in 1536 w were stimulated in the presence of 10 uM compound concentration. […] Using this approach, 370,620 compounds from the NIH MLSMR were successfully screened and 303 hits were identified (hit rate=0.08%; Z′=0.83). […] These compounds were graded according to activity and structure resulting in 86 compounds that met criteria as potential CXCR4 agonists for further characterization.
Chemical stability, synthetic tractability, solubility and complete dose response and potency criteria led to the prioritization of the 5-aryl-2-cyclopropyl oxazole scaffold, represented by primary hit Compound 2 (Table 1). Early structure-activity relationship was established around the 5-aryl-2-cyclopropyl oxazole core with commercially available analogs with diverse substituents in the sulfonanilide ring of the scaffold. […] Keeping the 2-OMe substituent constant a small set of electron withdrawing and electron rich substituents at the 5-position of the anilide ring were screened (entries 16-19).

[2] = biological target: T1, CXCR4; test: cAMP signaling assay, oxazole scaffold (forskolin-induced adenylate cyclase, CHO-K1 CXCR4 cells); design: host or cells: CHO-K1; conditions: listed as UCUF-728
Method: The CXCR4 receptor is a G-protein coupled receptor (GPCR) coupled to the Gi class, whose primary role is inhibition of adenylate cyclase. The ability of UCUF-728 to induce Gi-mediated cAMP-inhibitory cellular response was tested.
Forskolin at final concentration of […] was added to all wells using the TECAN dispenser. […] PathHunter CHO-K1 CXCR4 cells (DiscoverX, Fremont, CA) were added to compounds at 3,000 cells/well, centrifuged at 1000 rpm for 30 sec and incubated for 30 min at room temperature. DMSO (Sigma Aldrich, St. Louis, MO) was normalization to 0.5%. 5 μL of 4× Eu-cAMP tracer working solution was added to all wells followed by addition of 5 μL of 4× Ulight-anti-cAMP working solution to all wells. Plates were centrifuged at 1000 rpm for 1 min and incubated for 1 hr at room temperature then read using CLARIOstar Plus (BMG LABTECH Inc., Cary, NC) Lance CAMP protocol.

[3] = system: miR-15b; test: miR-15b expression in murine diabetic and non-diabetic fibroblasts; conditions: 24 h, response even at 0.1 μM; listed as UCUF-965
Method: (§1) Total RNA was extracted with TRIzol reagent (Invitrogen, Carlsbad, CA, USA) according to the manufacturer's established protocol. RNA was converted into cDNA using the SuperScript First-Strand Synthesis System (Invitrogen, Life Technologies). Primers and probes for mouse miR-15b and miR-29a were acquired from Applied Biosystems TaqMan gene expression assay (Applied Biosystems, Foster City, CA). Quantitative PCR was performed on a BIO-RAD CFX96 according to the manufacturer's instructions. Quantitative values of genes of interest are normalized based on U6. Samples (n=5 per group) were amplified in triplicate and results were averaged for each individual sample. The ΔΔCT method was used to calculate relative gene expression. Results are reported as mean±SD.
(§2) The expression of specific micro-RNA levels reported to be crucial in the wound-healing process were measured in order to validate and correlate the in vitro activity of UCUF-965 as a selective CXCR4 receptor modulator to micro-RNA expression. Murine diabetic and non-diabetic fibroblasts were cultured with increasing concentrations of the compound. The cells were incubated for 24 h and then total cellular RNA was isolated to examine the ability of the compound to correct the abnormal expression levels of miR-15b, miR-29a, and miR-146a. […]

[4] = system: miR-29a; test: miR-29a expression in murine fibroblasts; conditions: 24 h; listed as UCUF-965
Method: as §1, §2

[5] = system: miR-146a; test: miR-146a expression in murine fibroblasts; conditions: 24 h; listed as UCUF-965
Method: The expression of specific micro-RNA levels reported to be crucial in the wound-healing process were measured in order to validate and correlate the in vitro activity of UCUF-965 as a selective CXCR4 receptor modulator to micro-RNA expression. Murine diabetic and non-diabetic fibroblasts were cultured with increasing concentrations of the compound. The cells were incubated for 24 h and then total cellular RNA was isolated to examine the ability of the compound to correct the abnormal expression levels of miR-15b, miR-29a, and miR-146a. The effect of UCUF-965 on expression of miR-15b, which inhibits angiogenesis and wound repair was examined.

[6] = biological target: T1, CXCR4; test: Calcium flux (Fluo-4) in CEM-CCRF cells; design: host or cells: CEM-CCRF; conditions: 10 μM; listed as UCUF-965
Method: Fluo-4 Direct Calcium Assay Kit (Invitrogen; F10472) reagents were prepared according to the supplier guidelines at 2× concentration and allowed to equilibrate to room temperature in the dark. […] Following incubation, 25 μL of cell suspension loaded with Fluo-4 Direct Calcium reagent was dispensed into a 384-well black wall clear-bottom plate (Corning; 3764). […] Calcium flux responses were measured on the BMG LABTECH CLARIOstar Plus (BMG LABTECH Inc., Cary, NC) using the CLARIOstar Plus supplier excitation and emission settings for Fluo-4 (Calcium Saturated). Measurements were conducted using a bottom-read kinetic well-mode with measurements occurring at 0.5 sec intervals for 150 sec and injection occurring at 10.0 sec.

T1 sequence (P61073 whole entry): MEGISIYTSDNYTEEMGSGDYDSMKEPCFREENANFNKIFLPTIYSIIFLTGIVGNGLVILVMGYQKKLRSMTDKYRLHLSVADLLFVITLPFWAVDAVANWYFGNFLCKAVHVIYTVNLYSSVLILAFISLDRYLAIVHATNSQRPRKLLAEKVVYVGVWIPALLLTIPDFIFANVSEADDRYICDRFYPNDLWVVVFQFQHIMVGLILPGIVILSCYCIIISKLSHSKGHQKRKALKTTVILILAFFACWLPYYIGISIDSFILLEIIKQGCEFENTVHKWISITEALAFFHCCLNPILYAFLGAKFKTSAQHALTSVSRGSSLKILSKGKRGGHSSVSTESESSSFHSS

| SMILES | EC50 ([1]; 1536 w screening platform) [nM] | CXCR4 b-arrestin Emax (%) ([1]; 1536 w, normalized to SDF-1α) | cAMP signaling / forskolin-induced adenylate cyclase [2] | miR-15b expression [3] | miR-29a expression [4] | miR-146a expression [5] | calcium flux activity [6] |
| --- | --- | --- | --- | --- | --- | --- | --- |
| COc1ccc(OC)c(NS(=O)(=O)c2ccc(-c3cnc(C4CC4)o3)cc2)c1 [Oxazole Entry 19, 4-(2-Cyclopropyloxazol-5-yl)-N-(2,5-dimethoxyphenyl)benzenesulfonamide] | 1100 | 60 | did not inhibit forskolin-induced adenylate cyclase; also recorded: does not show dose-dependent activity |  |  |  |  |
| CCOc1ccccc1-c1nnc2n1N=C(c1ccc(N3CCCC3)cc1)CS2 [Thiadiazine Entry 23, 3-(2-ethoxyphenyl)-6-(4-(pyrrolidin-1-yl)phenyl)-7H-[1,2,4]triazolo[3,4-b][1,3,4]thiadiazine] |  |  |  | decreased the expression of miR-15b; also recorded: suppression of miR15b | significant decrease of miR-29a levels; also recorded: suppression of miR15b and miR29a | increase of miR-146a levels; also recorded: induction of miR146a | induce CXCR4-mediated calcium flux |
